A value given as a limit tells only on which side of the number the result lay.

These results are taken from US11377473B2, “Albumin-binding prodrugs of auristatin E derivatives” (priority 2017, dated 2022).

The nature of data set [1]: Reconstitution stability (maleimide hydrolysis, loss of API) in reconstitution buffer. The class given is physicochemical. The settings on record: for stability of the reconstituted drug (maleimide hydrolysis and loss of API): 50 mM sodium phosphate buffer pH 7.6, 5% sucrose, 2-HPβCD, room temperature, 240 minutes; for maleimide hydrolyzed: after 4 hours incubation at room temperature in reconstitution buffer (50 mM sodium phosphate pH 7.65 containing 4% HPβCD and 5% sucrose). As for the experimental part: The albumin-binding AE-Keto drug derivatives were reconstituted in 50 mM sodium phosphate buffer pH 7.6 which contained 5% sucrose (w/v) and 2% 2-hydroxypropyl-β-cyclodextrin (2-HPβCD). Both drugs were reconstituted at a concentration of 1277 μM (equal to 4.5 mg/kg murine xenograft dose), the dissolution of both drugs was confirmed by HPLC (method 2, 254 nm). Stability of the reconstituted drugs was monitored by HPLC at room temperature every 15 minutes over a period of 240 minutes for maleimide hydrolysis and loss of API.
The albumin-binding AE-Ester derivatives were reconstituted in 50 mM sodium phosphate buffer pH 7.6 which contained 5% sucrose (w/v) and 4% 2-HPβCD. Both drugs were reconstituted at a concentration of 655 μM (equal to 2.4 mg/kg murine xenograft dose), the dissolution of both drugs was confirmed by HPLC (method 2, 310 nm). Stability of the reconstituted drugs was monitored by HPLC at room temperature every 15 minutes over a period of 240 minutes for maleimide hydrolysis and loss of API.

For data set [2], the target named is T1, albumin in rat plasma (Rattus norvegicus, UniProt P02770).
T1 construct: CD1 murine plasma and Sprague Dawley rat plasma were removed from −80° C. storage; from tissue; host or cells: Sprague Dawley rat plasma (frozen, thawed, filtered)
T1 sequence (P02770 25-608): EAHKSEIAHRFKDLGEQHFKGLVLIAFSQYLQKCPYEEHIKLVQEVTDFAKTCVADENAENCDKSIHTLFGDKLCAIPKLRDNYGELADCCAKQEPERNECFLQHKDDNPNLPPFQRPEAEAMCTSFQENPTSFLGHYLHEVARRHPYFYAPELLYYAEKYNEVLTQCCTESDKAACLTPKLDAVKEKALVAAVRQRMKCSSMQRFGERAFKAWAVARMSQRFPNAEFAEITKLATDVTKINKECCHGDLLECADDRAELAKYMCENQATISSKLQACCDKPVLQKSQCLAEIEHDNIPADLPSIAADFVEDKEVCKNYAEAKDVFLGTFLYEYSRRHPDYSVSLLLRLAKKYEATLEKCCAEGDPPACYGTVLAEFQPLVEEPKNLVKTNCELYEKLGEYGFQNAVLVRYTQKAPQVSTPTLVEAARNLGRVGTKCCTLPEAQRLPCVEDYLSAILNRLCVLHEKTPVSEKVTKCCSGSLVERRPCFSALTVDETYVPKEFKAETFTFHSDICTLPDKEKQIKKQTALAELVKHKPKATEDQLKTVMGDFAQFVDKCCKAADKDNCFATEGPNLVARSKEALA
The data set can be described thus: Binding kinetics to albumin in rat plasma. Format: in vitro ADME, Sprague Dawley rat. The settings on record: 37° C. As for the experimental part: CD1 murine plasma and Sprague Dawley rat plasma were removed from −80° C. storage and allowed to reach room temperature. The thawed plasma was spun down at 13.6 kRPM for 60 seconds, the supernatant was filtered through a filter needle (5 μm) and subsequently through a 0.45 μm CA membrane.
(§1) All binding experiments were carried out in triplicate. The plasma was incubated at 37° C. using an Eppendorf Thermomixer C. After 30 minutes incubation 40 μL of the appropriate albumin-binding auristatin-Sulf07 derivative was dissolved in its reconstitution solution and added to the plasma. Samples (40 μL) were taken after 15 seconds, 2 minutes, 4 minutes, 8 minutes and 15 minutes (5 samples).
(§2) The samples were immediately added to 160 μL of acetonitrile (containing 4 μg/mL of 'MMAE as an internal standard) and vortexed for 1 minute.
(§3) The solutions were pipetted into an Impact plasma precipitation plate (shaken for 60 seconds) and filtered by vacuum onto a 96 well plate. Remaining drug was determined by LCMS quantification (method 5, 30 μL injection) using MRM MS2 negative mode (multiple reaction monitoring). Parent ions: auristatin F (Mass-744.8), AE-Keto-Sulf07 (Mass-1135.1) and AE-Ester-Sulf07 (Mass-1283.2). Percentage of binding was determined by comparing the AUC for AE-Keto-Sulf07 and AE-Ester-Sulf07 to calibration curves generated by LCMS for each compound.

Data set [3] has as its target T2, albumin in human plasma (Homo sapiens, UniProt P02768).
T2 construct: the plasma was separated from the red blood cells by spinning it down for 3 minutes at 3000 RPM; from tissue; host or cells: fresh plasma of a healthy human volunteer
The experiment in a line: Binding kinetics to albumin in human plasma. Format: in vitro ADME. The settings on record: 37° C. The protocol:
Whole blood was taken from a healthy human volunteer (EDTA collection tube), the plasma was separated from the red blood cells by spinning it down for 3 minutes at 3000 RPM. The plasma was then used directly, within 2 hours of the blood donation. 360 μL of the appropriate plasma was used for each binding experiment.
as §1, §2, §3

The test system of data set [4] is NSCLC xenograft model LXFA737. The data set can be described thus: Human non-small cell lung cancer model LXFA737, large tumors. The class given is in vivo, NMRI nude mice. An excerpt:
Mice were kept under a 14-hour light/10-hour dark, artificial light cycle. The animals were fed with autoclaved Teklad Global 19% Protein Extruded Diet (T.2019S.12) from Envigo RMS SARL and had access to sterile filtered and acidified (pH 2.5) tap water which was changed twice weekly. Feed and water were provided ad libitum. […] Animals were routinely monitored twice daily on working days and daily on Saturdays and Sundays. Starting on day 0, animals were weighed twice a week. Relative body weights (RBW) of individual animals were calculated by dividing the individual absolute body weight on day X (BWx) by the individual body weight on the day of randomization multiplied by 100%. […] Tumor volumes were calculated according to the following equation: […]
Statistical analysis was only carried out if at least 50% of the initially randomized animals in a relevant group were still alive. Comparisons between test groups were carried out for the same days. By convention, p-values ≤0.05 indicate significance of tumor inhibition. Statistical calculations were performed using GraphPad Prism bioanalytic software (San Diego Calif. USA, www.graphpad.com).
The evaluation of auristatin E and the albumin-binding auristatin E derivative AE-Keto-Sulf07 in a human non-small cell lung cancer model LXFA737 was carried out as described in the general procedure for patient-derived xenograft models.
Sample preparation: 51 mg weighed in a 100 mL vial dissolved in 36.5 mL 50/50 tert-butanol/10 mM sodium citrate buffer, 3% 2-HPßCD—pH 6.2; 2.4 mL were aliquoted in 4 mL vials.

Data set [5] relates to malignant melanoma cancer model A375. The experiment in a line: Human malignant melanoma cancer model A375, small tumors. Format: in vivo, NMRI nude mice. As for the experimental part:
Feed and water were provided ad libitum. […] Identification used: ear mark and cage labels. […] Tumor volumes were calculated according to the following equation: […]
The evaluation of auristatin E and the albumin-binding auristatin E derivative AE-Keto-Sulf07 in a human malignant melanoma cancer model A375 was carried out as described in the general procedure for cell-line-derived xenograft models.
Stock solutions were prepared as follows: • 1) 7 mice, 29 g average weight, 135 mm^3 average median tumor volume on day of randomization: 0.3 mg/kg auristatin E TFA salt (AE equiv.) dosed twice weekly for 3 weeks on day 0, 6, 9, 13, 16, 19≡0.35 mg/kg≡7.1 μg/20 g mouse.

Where [6] appears, read: 3.0 mg/kg six times twice weekly.

T2 sequence (P02768 25-609): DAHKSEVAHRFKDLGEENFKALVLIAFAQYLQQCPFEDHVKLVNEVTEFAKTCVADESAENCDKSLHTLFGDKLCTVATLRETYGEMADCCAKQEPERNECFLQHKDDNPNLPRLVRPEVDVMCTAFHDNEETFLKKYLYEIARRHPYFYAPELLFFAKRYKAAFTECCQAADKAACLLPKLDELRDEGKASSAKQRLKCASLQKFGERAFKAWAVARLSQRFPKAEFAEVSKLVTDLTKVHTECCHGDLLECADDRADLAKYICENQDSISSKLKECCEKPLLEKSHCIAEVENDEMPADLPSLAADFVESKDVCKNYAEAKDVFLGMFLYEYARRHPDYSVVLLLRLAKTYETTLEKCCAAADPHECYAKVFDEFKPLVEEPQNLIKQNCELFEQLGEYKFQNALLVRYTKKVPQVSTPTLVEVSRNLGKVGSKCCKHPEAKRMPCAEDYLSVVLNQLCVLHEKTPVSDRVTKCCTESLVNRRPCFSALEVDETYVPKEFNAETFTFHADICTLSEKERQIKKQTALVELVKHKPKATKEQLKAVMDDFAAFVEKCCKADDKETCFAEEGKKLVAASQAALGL

On to “2-(2-(1-(4-(((1S,2R)-2-((2R,3R)-3-((S)-1-((3R,4R,5S)-4-((S)-2-((R)-2-(dimethylamino)-3-methylbutanamido)-N,3-dimethylbutanamido)-3-methoxy-5-methylheptanoyl)pyrrolidin-2-yl)-3-methoxy-2-methylpropanamido)-1-phenylpropoxy)carbonyl)phenyl)ethylidene)hydrazine-1-carbonyl)-5-(6-(2,5-dioxo-2,5-dihydro-1H-pyrrol-1-yl)hexanamido)benzenesulfonic acid [AE-Ester-Sulf07]”, for which, in data set [1], the “stability of the reconstituted drug (maleimide hydrolysis and loss of API)” value was “more stable than AE-Ester-EMCH”; the maleimide hydrolyzed was 2.5%. In addition, the “albumin binding in plasma” value in data set [2] was “very rapid”. Also, the “albumin binding in plasma” value in data set [3] is given as “very rapid”.
For the molecule `CC[C@H](C)[C@@H]([C@@H](CC(=O)N1CCC[C@H]1[C@H](OC)[C@@H](C)C(=O)N[C@H](C)C(=NNC(=O)c1ccc(NC(=O)CCCCCN2C(=O)C=CC2=O)cc1S(=O)(=O)O)c1ccccc1)OC)N(C)C(=O)[C@@H](NC(=O)[C@H](C(C)C)N(C)C)C(C)C` [AE-Keto-Sulf07, 2-(2-((R)-2-((2R,3R)-3-((S)-1-((3R,4S,5S)-4-((S)-2-((S)-2-(dimethylamino)-3-methylbutanamido)-N,3-dimethylbutanamido)-3-methoxy-5-methylheptanoyl)pyrrolidin-2-yl)-3-methoxy-2-methylpropanamido)-1-phenylpropylidene)hydrazine-1-carbonyl)-5-(6-(2,5-dioxo-2,5-dihydro-1H-pyrrol-1-yl)hexanamido)benzenesulfonic acid], the “stability of the reconstituted drug (maleimide hydrolysis and loss of API)” value in data set [1] is “more stable than AE-Keto-EMCH”. Also, the maleimide hydrolyzed in data set [1] worked out at 2.2%. The side effects result in data set [4] (4.5 mg/kg 8 times twice weekly) is “No side effects were registered”; in data set [5] (setting [6]), “no detectable side effects”. In addition, the tumor response entry in data set [4] (4.5 mg/kg 8 times twice weekly, day 15 until end of study on day 59) is listed as “partial tumor remission”; in data set [5] (3.0 mg/kg six times twice weekly, day 19 until end of study on day 37), “complete remission (complete remission <10%)”. The “p, antitumor efficacy versus auristatin E” value in data set [4] (4.5 mg/kg versus auristatin E 0.3 mg/kg, 8 times twice weekly, day 28) is given as below 0.01; in data set [5] (3.0 mg/kg versus auristatin E 0.3 mg/kg, six injections twice weekly, day 27 to day 37), below 0.01. Moreover, in data set [5] (setting [6]), the body weight result is reported as “only a slight reduction in body weight growth compared to the control”. Also, in data set [5] (3.0 mg/kg, day 37), the final tumor volume is given as 1 mm^3. Besides, the “albumin binding in plasma” value in data set [2] and in data set [3] was “very rapid” each time.
For `CC[C@H](C)[C@@H]([C@@H](CC(=O)N1CCC[C@H]1[C@H](OC)[C@@H](C)C(=O)N[C@H](C)[C@@H](O)c1ccccc1)OC)N(C)C(=O)[C@@H](NC(=O)[C@H](C(C)C)N(C)C)C(C)C` [auristatin E], the antitumor activity result in data set [4] (0.3 mg/kg 8 times twice weekly) is reported as “did not show any activity”. The tumor response result in data set [5] (0.3 mg/kg six times twice weekly, until day 21) is “stable disease (stable disease >75-125%)”.
